US20240398828A1, “HETERO-ATOM CONTAINING COMPOUNDS AND USES THEREOF” (Kumquat Biosciences Inc., priority 2021, published 2024)

Experiments:
[1] = target: T1, PTPN2 (i.e., TC-PTP) (Homo sapiens, UniProt P17706); assay: Phosphatase activity assay (DiFMUP substrate), PTPN2; format: biochemical; settings: compounds binned ≤1 uM or >1 uM
T1 sequence (P17706 1-415): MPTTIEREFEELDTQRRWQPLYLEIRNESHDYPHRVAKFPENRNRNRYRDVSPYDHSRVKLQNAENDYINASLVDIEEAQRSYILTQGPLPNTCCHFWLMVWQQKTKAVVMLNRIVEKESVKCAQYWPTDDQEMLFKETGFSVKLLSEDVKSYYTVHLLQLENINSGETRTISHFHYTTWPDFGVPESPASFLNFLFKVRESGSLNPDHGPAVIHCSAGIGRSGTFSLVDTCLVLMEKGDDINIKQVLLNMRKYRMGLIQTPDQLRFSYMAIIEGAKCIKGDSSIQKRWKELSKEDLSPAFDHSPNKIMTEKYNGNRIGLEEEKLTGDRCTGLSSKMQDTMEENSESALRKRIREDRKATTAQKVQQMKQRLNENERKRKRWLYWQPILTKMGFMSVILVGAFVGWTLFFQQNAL
Description: (§1) The selectivity and potency of a small molecule PTPN2 inhibitor as provided herein against one or more protein tyrosine phosphatase (PTP) enzymes, and specifically against PTPN2, is assessed in various ways. The one or more PTP enzymes comprise Mycobacterium protein tyrosine phosphatase A (mPTPA), Mycobacterium protein tyrosine phosphatase B (mPTPB), PTPN1 (i.e., PTP1B), PTPN2 (i.e., TC-PTP), PTPN22 (i.e., LYP), SHP-1, SHP-2, FAP-1, Meg2, HePTP, Laforin, VHX, VHR, LMWPTP, Cdc14A, LAR, CD45, PTPRG, a fragment thereof, a variant thereof, and a combination thereof. Selectivity and potency of a small molecule PTPN2 inhibitor is evaluated using a PTP activity inhibition assay. The assay is performed using a buffer comprising 50 mM HEPES buffer pH 7.5, 150 mM NaCl, 0.5 mM EDTA, 1 mM DTT, 0.001% Tween-20.
(§2) The assay is performed using a phosphated substrate, e.g., 10 mM 6,8-Difluoro-4-Methylumbelliferyl Phosphate (DIFMUP) that is stored at −20° C. Alternatively or in addition to, the assay is performed using other phosphated substrate (e.g., fluorescein diphosphate). Each PTP enzyme is diluted in the assay buffer
(§3) The assay can be carried out at room temperature in multiplate format, e.g., using 384 well plates. A small molecule PTPN2 inhibitor dissolved in DMSO at one of 10 concentrations from a serial dilution or DMSO alone for control is added to each well. A mixture of the assay buffer comprising PTP enzyme (e.g., 0.025 ng/ul PTPN2) is added to each well and mixed for approximately 2 minutes. The reaction is initiated by adding DiFMUP diluted in the assay buffer to a final concentration of approximately 45 μM DiFMUP in PTPN2 assay. For each PTP enzyme, DiFMUP is added at the Km (Michaelis constant) of the enzyme that had been independently determined. The phosphatase activity of the PTP enzyme is assessed by monitoring appearance of a fluorescent product (6,8-difluoro-7-hydroxyl-4-coumarin (DiFMU) from DiFMUP) continuously for about 15 to 30 minutes, using the INFINITE M1000Pro plate reader (Tecan) with excitation at 360 nm and emission at 450 nm (cutoff filter at 435 nm) for DiFMU. Each assay is performed at least in duplicate. The rate (e.g., the initial rate) of DiFMU formation is plotted against the concentration of the small molecule PTPN2 inhibitor, and the data is fitted (e.g., using a 4-parameter equation) to determine the inflection point of the fit as the IC50 of the small molecule PTPN2 inhibitor for a specific enzyme. Utilizing this assay, the ability of the compounds in Table 2 to inhibit PTPN2 and PTP1B has been assessed. Table 3 summarizes the IC50 values.

[2] = target: T2, PTPN1 (i.e., PTP1B) (Homo sapiens, UniProt P18031); assay: Phosphatase activity assay (DiFMUP substrate), PTP1B; format: biochemical; settings: compounds binned ≤1 uM or >1 uM
T2 sequence (P18031 1-435): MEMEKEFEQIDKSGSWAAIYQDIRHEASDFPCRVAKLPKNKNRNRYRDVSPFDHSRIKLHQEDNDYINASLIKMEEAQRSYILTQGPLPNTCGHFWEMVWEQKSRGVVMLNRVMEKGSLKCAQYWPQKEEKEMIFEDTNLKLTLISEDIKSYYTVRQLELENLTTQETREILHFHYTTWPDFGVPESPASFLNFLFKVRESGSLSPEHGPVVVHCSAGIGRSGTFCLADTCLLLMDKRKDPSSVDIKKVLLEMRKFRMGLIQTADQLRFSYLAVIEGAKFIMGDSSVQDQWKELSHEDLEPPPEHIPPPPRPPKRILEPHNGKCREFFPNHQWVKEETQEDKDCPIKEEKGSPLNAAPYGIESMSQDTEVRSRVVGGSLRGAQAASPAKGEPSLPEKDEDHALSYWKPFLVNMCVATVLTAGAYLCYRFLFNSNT
Description: as §1, §2, §3

IC50 [1] [nM] | IC50 [2] [nM] | Structure (SMILES)
≤ 1000 | ≤ 1000 | O=C1CN(c2c(O)ccc(-c3ccc4ncccc4c3)c2F)S(=O)(=O)N1 [Compound 150, 5-(2-fluoro-6-hydroxy-3-(quinolin-6-yl)phenyl)-1,2,5-thiadiazolidin-3-one 1,1-dioxide]
> 1000 | ≤ 1000 | Nc1nc2c(-c3ccc(O)c(N4CC(=O)NS4(=O)=O)c3F)ccc(F)c2s1 [Compound 151, 5-(3-(2-amino-7-fluorobenzo[d]thiazol-4-yl)-2-fluoro-6-hydroxyphenyl)-1,2,5-thiadiazolidin-3-one 1,1-dioxide]
> 1000 | ≤ 1000 | CC(C)CCn1cc(-c2cc(F)c(O)c(N3CC(=O)NS3(=O)=O)c2)cn1 [Compound 153, 5-(3-fluoro-2-hydroxy-5-(1-isopentyl-1H-pyrazol-4-yl)phenyl)-1,2,5-thiadiazolidin-3-one 1,1-dioxide]
≤ 1000 | ≤ 1000 | Cn1ncc2cc(-c3ccc(O)c(N4CC(=O)NS4(=O)=O)c3F)cnc21 [Compound 156, 5-(2-fluoro-6-hydroxy-3-(1-methyl-1H-pyrazolo[3,4-b]pyridin-5-yl)phenyl)-1,2,5-thiadiazolidin-3-one 1,1-dioxide]
≤ 1000 | ≤ 1000 | N#Cc1ccc(Cn2cc(-c3ccc(O)c(N4CC(=O)NS4(=O)=O)c3F)cn2)cc1F [Compound 157, 4-((4-(3-(1,1-dioxido-4-oxo-1,2,5-thiadiazolidin-2-yl)-2-fluoro-4-hydroxyphenyl)-1H-pyrazol-1-yl)methyl)-2-fluorobenzonitrile]
≤ 1000 | ≤ 1000 | O=C1CN(c2c(O)ccc(-c3c[nH]cn3)c2F)S(=O)(=O)N1 [Compound 158, 5-(2-fluoro-6-hydroxy-3-(1H-imidazol-4-yl)phenyl)-1,2,5-thiadiazolidin-3-one 1,1-dioxide]
≤ 1000 | ≤ 1000 | O=C1CN(c2c(O)ccc(-c3cnn(Cc4cccc(C(F)(F)F)c4)c3)c2F)S(=O)(=O)N1 [Compound 159, 5-(2-fluoro-6-hydroxy-3-(1-(3-(trifluoromethyl)benzyl)-1H-pyrazol-4-yl)phenyl)-1,2,5-thiadiazolidin-3-one 1,1-dioxide]
≤ 1000 | ≤ 1000 | O=C1CN(c2c(O)ccc(-c3ccnc(N4CCCC4)c3)c2F)S(=O)(=O)N1 [Compound 162, 5-(2-fluoro-6-hydroxy-3-(2-(pyrrolidin-1-yl)pyridin-4-yl)phenyl)-1,2,5-thiadiazolidin-3-one 1,1-dioxide]
≤ 1000 | ≤ 1000 | CC(C)CCNC1CCN(c2ccc(O)c(N3CC(=O)NS3(=O)=O)c2F)C1 (centres unmarked) [Compound 163, 5-(2-fluoro-6-hydroxy-3-(3-(isopentylamino)pyrrolidin-1-yl)phenyl)-1,2,5-thiadiazolidin-3-one 1,1-dioxide]
≤ 1000 | ≤ 1000 | CC(C)n1cnc(-c2ccc(O)c(N3CC(=O)NS3(=O)=O)c2F)c1 [Compound 165, 5-(2-fluoro-6-hydroxy-3-(1-isopropyl-1H-imidazol-4-yl)phenyl)-1,2,5-thiadiazolidin-3-one 1,1-dioxide]

Second part, the molecule before the results:

Structure (SMILES) | IC50 [1] [nM] | IC50 [2] [nM]
CN(C)CCn1cc(-c2ccc(O)c(N3CC(=O)NS3(=O)=O)c2F)cn1 [Compound 148, 5-(3-(1-(2-(dimethylamino)ethyl)-1H-pyrazol-4-yl)-2-fluoro-6-hydroxyphenyl)-1,2,5-thiadiazolidin-3-one 1,1-dioxide] | ≤ 1000 | ≤ 1000
CC(C)Cn1cc(-c2ccc(O)c(N3CC(=O)NS3(=O)=O)c2F)cn1 [Compound 149, 5-(2-fluoro-6-hydroxy-3-(1-isobutyl-1H-pyrazol-4-yl)phenyl)-1,2,5-thiadiazolidin-3-one 1,1-dioxide] | ≤ 1000 | ≤ 1000
O=C1CN(c2c(O)ccc(-c3c(F)ccc4[nH]ncc34)c2F)S(=O)(=O)N1 [Compound 152, 5-(2-fluoro-3-(5-fluoro-1H-indazol-4-yl)-6-hydroxyphenyl)-1,2,5-thiadiazolidin-3-one 1,1-dioxide] | ≤ 1000 | ≤ 1000
O=C1CN(c2c(O)ccc(-c3cnn(CCC4CCCOC4)c3)c2F)S(=O)(=O)N1 (centres unmarked) [Compound 154, 5-(2-fluoro-6-hydroxy-3-(1-(2-(tetrahydro-2H-pyran-3-yl)ethyl)-1H-pyrazol-4-yl)phenyl)-1,2,5-thiadiazolidin-3-one 1,1-dioxide] | ≤ 1000 | ≤ 1000
CC1C(=O)NS(=O)(=O)N1c1c(O)ccc(-c2cnn(Cc3cccc(F)c3)c2)c1F (centres unmarked) [Compound 155, 5-(2-fluoro-3-(1-(3-fluorobenzyl)-1H-pyrazol-4-yl)-6-hydroxyphenyl)-4-methyl-1,2,5-thiadiazolidin-3-one 1,1-dioxide] | ≤ 1000 | ≤ 1000
O=C1CN(c2c(O)ccc(-c3cnn(C4CCCCC4)c3)c2F)S(=O)(=O)N1 [Compound 160, 5-(3-(1-cyclohexyl-1H-pyrazol-4-yl)-2-fluoro-6-hydroxyphenyl)-1,2,5-thiadiazolidin-3-one 1,1-dioxide] | ≤ 1000 | ≤ 1000
N#Cc1cccc(Cn2cc(-c3ccc(O)c(N4CC(=O)NS4(=O)=O)c3F)cn2)c1 [Compound 161, 3-((4-(3-(1,1-dioxido-4-oxo-1,2,5-thiadiazolidin-2-yl)-2-fluoro-4-hydroxyphenyl)-1H-pyrazol-1-yl)methyl)benzonitrile] | ≤ 1000 | ≤ 1000
Cc1n[nH]c(C)c1-c1ccc(O)c(N2CC(=O)NS2(=O)=O)c1F [Compound 164, 5-(3-(3,5-dimethyl-1H-pyrazol-4-yl)-2-fluoro-6-hydroxyphenyl)-1,2,5-thiadiazolidin-3-one 1,1-dioxide] | > 1000 | > 1000
O=C1CN(c2c(O)ccc(-c3ccc(OCC4CC4)nc3)c2F)S(=O)(=O)N1 [Compound 166, 5-(3-(6-(cyclopropylmethoxy)pyridin-3-yl)-2-fluoro-6-hydroxyphenyl)-1,2,5-thiadiazolidin-3-one 1,1-dioxide] | ≤ 1000 | ≤ 1000
O=C1CN(c2c(O)ccc(-c3ccnc(OCC4CC4)c3)c2F)S(=O)(=O)N1 [Compound 167, 5-(3-(2-(cyclopropylmethoxy)pyridin-4-yl)-2-fluoro-6-hydroxyphenyl)-1,2,5-thiadiazolidin-3-one 1,1-dioxide] | ≤ 1000 | ≤ 1000
O=C1CN(c2c(O)ccc(-c3n[nH]c4ccccc34)c2F)S(=O)(=O)N1 [Compound 168, 5-(2-fluoro-6-hydroxy-3-(1H-indazol-3-yl)phenyl)-1,2,5-thiadiazolidin-3-one 1,1-dioxide] | > 1000 | > 1000
N#Cc1cc(Cn2cc(-c3ccc(O)c(N4CC(=O)NS4(=O)=O)c3F)cn2)ccc1F [Compound 169, 5-((4-(3-(1,1-dioxido-4-oxo-1,2,5-thiadiazolidin-2-yl)-2-fluoro-4-hydroxyphenyl)-1H-pyrazol-1-yl)methyl)-2-fluorobenzonitrile] | ≤ 1000 | ≤ 1000
